Results on one compound are retold here after patent US20050239755A1, “External preparation for inhibiting keloid formation” (priority 2002, published 2005).

One assay relates to human normal fibroblast. Description: Test of inhibition of collagen gel shrinking (human normal fibroblast). Format: cell-based. The note with it: for Shrinking rate of collagen: after 24 hours. The protocol: (§1) Test of Inhibition of Collagen Gel Shrinking. A collagen solution (1.5 mg/mL) (1 mL) and a suspension of human normal fibroblast or human fibroblast derived from keloid (1×10^5 cells) (1 mL) were added to a Petri dish (diameter; 35 mm) and mixed. The mixture was warmed for about 10 minutes in an incubator (37° C., 5% CO2) to prepare collagen gel. Further broth (1 mL) was added over thereon and was left for about 3 hours in the incubator (37° C., 5% CO2). The collagen gel was released from the Petri dish, and thereto was added a solution containing acetylsalicylic acid (its final concentration was respectively 0, 0.05, 0.5, 5, and 50 μM). The suspension was cultured in the incubator (37° C., 5% CO2) and after 24 hours the shrinking rate was evaluated.

In assay [1] the test system is human fibroblast derived from keloid. Description: Test of inhibition of collagen gel shrinking (human fibroblast derived from keloid). The note with it: for Shrinking rate: after 24 hours. Format: cell-based. As for the experimental part: as §1

As to `CC(=O)Oc1ccccc1C(=O)O` [Acetylsalicylic acid], the “shrinking of collagen (in words)” value (in the assay with human normal fibroblast (Table 9); in assay [1] (Table 10)) was “inhibited” in each case. Moreover, the “Shrinking rate of collagen” value in the assay on human normal fibroblast (acetylsalicylic acid 0.05 μM) came to 23%; in the assay with human normal fibroblast (acetylsalicylic acid 0.5 μM), 12%; in the assay with human normal fibroblast (acetylsalicylic acid 5 μM), 10%; with human normal fibroblast (acetylsalicylic acid 50 μM), 14%. For the same compound, the Shrinking rate turned out to be 21% in assay [1] (acetylsalicylic acid 0.05 μM), 19% in assay [1] (acetylsalicylic acid 0.5 μM), 24% in assay [1] (acetylsalicylic acid 5 μM) and 20% in assay [1] (acetylsalicylic acid 50 μM).
